As usually defined, the GI50 is the concentration giving 50% growth inhibition. As a reminder, the TGI is the concentration giving total growth inhibition.

Data on eight molecules can be found in PubChem BioAssay (NCI).

Among the test systems are SK-MEL-28 melanoma; T-47D breast; HT29 colon; SF-539 CNS; DU-145 prostate; UACC-62 melanoma; SF-268 CNS; BT-549 breast; UO-31 renal; SR leukemia.
Test in all cases: DTP human tumour cell line panel, 48 h

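Tested at 5 concentrations; 48 h exposure; 96-well plates; endpoints linearly interpolated, else capped at highest concentration. GI50 = concentration required for 50% inhibition of growth. TGI: total growth inhibition.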 A value given as a limit tells only on which side of the number the result lay.

As to `COc1cc(-n2cc(-c3ccc(Cl)cc3)n(-c3ccccc3)c2=O)cc(OC)c1OC`, the GI50 is 21.4 µM with SK-MEL-28 melanoma; 8.01 µM in the test on T-47D breast; 16.6 µM in the test on HT29 colon; 27.1 µM with SF-539 CNS; 43.6 µM in the test with DU-145 prostate; 4.92 µM in the test on UACC-62 melanoma. Besides, the GI50 in the test with SF-268 CNS was 31.2 µM; in the test with BT-549 breast, 17.5 µM; in the test with UO-31 renal it was 16.6 µM; with SR leukemia it was 4.48 µM. Besides, the TGI was over 100 µM in the test on SK-MEL-28 melanoma; 74 µM in the test on T-47D breast; over 100 µM in the test with HT29 colon; over 100 µM in the test with SF-539 CNS; over 100 µM in the test with DU-145 prostate; 28.2 µM with UACC-62 melanoma. Besides, the TGI with SF-268 CNS was over 100 µM; in the test with BT-549 breast, 57.3 µM; in the test with UO-31 renal, over 93.9 µM; with SR leukemia, over 38.4 µM.

Take `ClCc1ccccc1Cn1cnc2nc(Cl)nc(Cl)c21`: the GI50 with SK-MEL-28 melanoma was 0.582 µM; in the test with T-47D breast, 0.59 µM; in the test with HT29 colon, 0.412 µM; in the test on SF-539 CNS, 0.639 µM; in the test with DU-145 prostate, 0.548 µM; with UACC-62 melanoma, 0.495 µM. The GI50 in the test with SF-268 CNS was 0.379 µM; in the test with BT-549 breast, 1.34 µM; in the test with UO-31 renal, 1.26 µM; in the test on SR leukemia, 0.64 µM. In addition, the TGI was 5.24 µM in the test on T-47D breast; over 100 µM with HT29 colon; 1.29 µM in the test with SF-539 CNS; 1.33 µM with DU-145 prostate; 1.37 µM with UACC-62 melanoma; over 49.4 µM in the test with SF-268 CNS. The values for the TGI in the test with BT-549 breast, in the test with UO-31 renal and in the test with SR leukemia were 3.08 µM, 2.52 µM and 5.66 µM, respectively.

On to `Oc1ccc(N=Nc2ccc(Br)cc2)c(O)c1`, for which the GI50 with SK-MEL-28 melanoma is 7.97 µM; in the test with T-47D breast, 2.93 µM; in the test on HT29 colon, 15.5 µM; in the test on SF-539 CNS it was 1.93 µM; in the test with DU-145 prostate it was 3.43 µM; in the test with UACC-62 melanoma, 3.01 µM. In addition, the GI50 is 5.84 µM in the test with SF-268 CNS, 2.67 µM in the test on BT-549 breast, 2.27 µM with UO-31 renal and 0.337 µM in the test on SR leukemia. Besides, the TGI was over 100 µM with SK-MEL-28 melanoma; 42.3 µM in the test with T-47D breast; 77.9 µM in the test on HT29 colon; 5.14 µM in the test with SF-539 CNS; 17.9 µM in the test with DU-145 prostate; 20.8 µM in the test on UACC-62 melanoma. Also, the TGI in the test on SF-268 CNS is over 100 µM; with BT-549 breast, 8.3 µM; with UO-31 renal it was 15.6 µM; with SR leukemia, 2.54 µM.

Take `COc1cc2c(/C=C3\C(=O)N(C)c4ccccc43)c[nH]c2cc1C`: the GI50 in the test with SK-MEL-28 melanoma is over 22.4 µM; in the test with T-47D breast it was over 39.3 µM; in the test on HT29 colon, 0.36 µM; in the test on SF-539 CNS, 4.2 µM; with DU-145 prostate it was 6.77 µM; in the test with UACC-62 melanoma, 1.29 µM. Moreover, the GI50 was 0.103 µM in the test on SF-268 CNS, 7.53 µM in the test on BT-549 breast, 11.5 µM in the test on UO-31 renal and 2.07 µM with SR leukemia. For the same molecule, the TGI in the test on SK-MEL-28 melanoma is over 100 µM; in the test on T-47D breast it was over 100 µM; with SF-539 CNS it was over 31.2 µM; with DU-145 prostate, over 66.3 µM; in the test on UACC-62 melanoma, over 100 µM; with SF-268 CNS, over 43.9 µM. For the same molecule, the TGI was 71.9 µM in the test with BT-549 breast, over 62 µM in the test on UO-31 renal and 14.2 µM with SR leukemia.

Turning to `Nc1nc(Sc2ccc([N+](=O)[O-])c3nonc23)c2ncn(C3OC(CO)C(O)C3O)c2n1` (centres undefined), the GI50 with SK-MEL-28 melanoma is 11.7 µM; in the test with T-47D breast it was 1.07 µM; with HT29 colon, 0.846 µM; in the test with SF-539 CNS, 0.738 µM; in the test on DU-145 prostate, 0.554 µM; with UACC-62 melanoma, 0.478 µM. Besides, the GI50 with SF-268 CNS is 0.938 µM; in the test on BT-549 breast it was 1.6 µM; with UO-31 renal it was 0.902 µM; with SR leukemia, 0.113 µM. Moreover, the TGI in the test with SK-MEL-28 melanoma was 26.6 µM; in the test on T-47D breast, over 49.5 µM; in the test on HT29 colon, 16.2 µM; in the test on SF-539 CNS, over 37.2 µM; in the test with DU-145 prostate it was 27.3 µM; with UACC-62 melanoma it was 3.59 µM. The TGI in the test with SF-268 CNS is 21.3 µM; in the test on BT-549 breast, 18.6 µM; with UO-31 renal, 43.6 µM; in the test on SR leukemia, over 41.2 µM.

For the molecule `COc1cc2c3c(n(CCCN=[N+]=[N-])c(=O)c2cc1OC)-c1ccc(F)cc1C3=O`, the GI50 in the test with SK-MEL-28 melanoma was 49.2 µM; in the test on T-47D breast, 3.92 µM; in the test with HT29 colon, 12.3 µM; in the test on SF-539 CNS, 3.23 µM; with DU-145 prostate, 4.19 µM; in the test with UACC-62 melanoma, 5.27 µM. Also, the GI50 is 3.8 µM with SF-268 CNS, 12.4 µM with BT-549 breast, 5.14 µM in the test with UO-31 renal and 0.449 µM in the test with SR leukemia. Also, the TGI was over 100 µM with SK-MEL-28 melanoma; over 100 µM with T-47D breast; over 100 µM in the test with HT29 colon; 12.4 µM in the test on SF-539 CNS; over 100 µM in the test with DU-145 prostate; over 100 µM with UACC-62 melanoma. The TGI is over 100 µM in the test on SF-268 CNS, over 100 µM with BT-549 breast, over 100 µM in the test with UO-31 renal and 2.68 µM in the test on SR leukemia.

As for `CCOc1ccc(-c2nc3ccc(-c4nc5ccc(N6CCN(C)CC6)cc5[nH]4)cc3[nH]2)cc1`, the GI50 in the test on SK-MEL-28 melanoma was 0.77 µM; in the test on T-47D breast, 0.299 µM; in the test on SF-539 CNS it was 0.689 µM; in the test with DU-145 prostate, 0.402 µM; in the test on UACC-62 melanoma, 0.511 µM; with SF-268 CNS, 0.361 µM. The GI50 with BT-549 breast is 1.16 µM; in the test with UO-31 renal it was 2.54 µM; in the test with SR leukemia, 0.311 µM. Moreover, the TGI in the test on SK-MEL-28 melanoma was 2.13 µM; in the test on T-47D breast, 2.2 µM; in the test with SF-539 CNS, 2 µM; in the test with DU-145 prostate, 1.57 µM; with UACC-62 melanoma, 1.96 µM; in the test with SF-268 CNS, 1.67 µM. In addition, the TGI was 2.46 µM in the test on BT-549 breast, 7.7 µM with UO-31 renal and 2.67 µM with SR leukemia.

In the case of `CCCCN(CCCC)P(=O)(Oc1ccccc1)Oc1ccccc1`, the GI50 with SK-MEL-28 melanoma is 15.3 µM; in the test on T-47D breast, 7.46 µM; in the test with HT29 colon, 4.95 µM; in the test with SF-539 CNS, 14 µM; with DU-145 prostate, 11.1 µM; in the test on UACC-62 melanoma, 11.9 µM. The results for the GI50 with SF-268 CNS, in the test on BT-549 breast and in the test on SR leukemia were 8.86 µM, 14.9 µM and 7.34 µM, respectively. Besides, the TGI in the test with SK-MEL-28 melanoma turned out to be 29.2 µM; in the test on T-47D breast, 33.1 µM; in the test with HT29 colon it was 21.6 µM; in the test on SF-539 CNS, 28.6 µM; in the test with DU-145 prostate it was 24 µM; in the test on UACC-62 melanoma, 25.7 µM. The TGI in the test with SF-268 CNS is 21.9 µM; in the test with BT-549 breast, 28.3 µM; in the test with SR leukemia, 68.5 µM.
